ChEMBL document CHEMBL3259804, “Syk inhibitors with high potency in presence of blood” (Bioorg Med Chem Lett, 2014)

Legend:
[1] = target: T1, Tyrosine-protein kinase ZAP-70 (Homo sapiens, UniProt P43403); experiment: Inhibition of ZAP70 (unknown origin)
T1 sequence (P43403 whole entry): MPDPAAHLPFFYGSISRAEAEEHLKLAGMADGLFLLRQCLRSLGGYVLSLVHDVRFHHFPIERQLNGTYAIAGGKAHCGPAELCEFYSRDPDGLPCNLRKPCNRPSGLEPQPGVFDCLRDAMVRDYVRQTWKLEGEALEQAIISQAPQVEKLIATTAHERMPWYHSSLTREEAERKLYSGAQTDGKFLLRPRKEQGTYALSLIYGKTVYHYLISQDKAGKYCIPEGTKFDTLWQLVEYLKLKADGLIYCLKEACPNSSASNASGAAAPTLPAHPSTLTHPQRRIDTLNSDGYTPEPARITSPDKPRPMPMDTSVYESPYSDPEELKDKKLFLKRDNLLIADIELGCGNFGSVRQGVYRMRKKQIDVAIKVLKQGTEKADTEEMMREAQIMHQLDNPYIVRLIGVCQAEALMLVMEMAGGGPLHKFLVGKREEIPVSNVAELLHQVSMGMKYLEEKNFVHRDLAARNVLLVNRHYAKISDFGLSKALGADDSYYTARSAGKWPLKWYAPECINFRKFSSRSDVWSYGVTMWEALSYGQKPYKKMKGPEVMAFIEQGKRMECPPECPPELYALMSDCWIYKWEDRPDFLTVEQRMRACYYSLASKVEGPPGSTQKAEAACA

Liver = experiment: Half life in rat liver S9 fraction assessed as conversion into 5-(1H-indol-7-ylamino)-7-((1R,2S)-2-aminocyclohexylamino)pyrido[4,3-d]pyrimidine-2,4(1H,3H)-dione; type: ADME, subcellular
Bone marrow cell = experiment: Inhibition of IL3 dependent proliferation in […] mouse bone marrow cells using [3H]thymidine by liquid scintillation counting; type: functional, cell-based
[2] = target: T2, Tyrosine-protein kinase SYK (Homo sapiens, UniProt P43405); experiment: Inhibition of Syk in anti IgM-stimulated human Ramos cells assessed as BLNK phosphorylation by cellular assay
[3] = target: Voltage-gated inwardly rectifying potassium channel KCNH2 (Homo sapiens, UniProt Q12809); experiment: Inhibition of human ERG by Q-patch assay
[4] = Half life in rat liver S9 fraction assessed as conversion into 5-(1H-indol-7-ylamino)-7-((1R,2S)-2-aminocyclohexylamino)pyrido[4,3-d]pyrimidine-2,4(1H,3H)-dione in presence of NADPH; type: ADME, subcellular
[5] = target: T2, Tyrosine-protein kinase SYK; experiment: Inhibition of Syk in human whole blood assessed as inhibition of P-SLP76 in CD14+ monocytes by flow cytometry
[6] = target: Tyrosine-protein kinase Lyn (Homo sapiens, UniProt P07948); experiment: Inhibition of Lyn (unknown origin)
[7] = (§1) Half life in rat liver microsomes; type: ADME; settings: liver microsomes
[8] = target: T2, Tyrosine-protein kinase SYK; experiment: Inhibition of Syk (unknown origin) using 4 uM peptide assessed as product formation after 60 mins incubation by microfluidic mobility shift assay
Rattus norvegicus [9] = experiment: Dose normalized AUC in Sprague-Dawley rat at 1 mg/kg, iv; type: ADME, organism-based; parameters: dose 1 mg/kg, route intravenous; settings: in vivo
[10] = Volume of distribution at steady state in Sprague-Dawley rat at 1 mg/kg, iv and 3 mg/kg, po; type: ADME, organism-based; settings: in vivo, read-out: Vdss
Rattus norvegicus [11] = experiment: Cmax/dose in Sprague-Dawley rat at 1 mg/kg, iv and 3 mg/kg, po; type: ADME, organism-based; settings: in vivo
[12] = Apparent permeability from basolateral to apical side in human Caco2 cells; type: ADME, cell-based; settings: Caco-2
Rattus norvegicus [13] = experiment: Dose normalized AUC in Sprague-Dawley rat at 3 mg/kg, po; type: ADME, organism-based; parameters: dose 3 mg/kg, route oral; settings: in vivo
[14] = Plasma bioavailability in Sprague-Dawley rat at 1 mg/kg, iv and 3 mg/kg, po; type: ADME, organism-based
[15] = Apparent permeability from apical to basolateral side in human Caco2 cells; type: ADME, cell-based; settings: Caco-2
[16] = target: Tyrosine-protein kinase JAK2 (Homo sapiens, UniProt O60674); experiment: Inhibition of JAK2 (unknown origin)
[17] = Terminal half life Sprague-Dawley rat at 1 mg/kg, iv and 3 mg/kg, po; type: ADME, organism-based; settings: in vivo, read-out: beta t1/2 (converted)
[18] = Clearance in Sprague-Dawley rat at 1 mg/kg, iv and 3 mg/kg, po; type: ADME, organism-based; settings: in vivo
[19] = Clearance in Wistar rat at 3 mg/kg, iv and 10 mg/kg, po; type: ADME, organism-based; settings: in vivo
[20] = Plasma bioavailability in Wistar rat at 3 mg/kg, iv and 10 mg/kg, po; type: ADME, organism-based
Rattus norvegicus [21] = experiment: Cmax/dose in Wistar rat at 3 mg/kg, iv and 10 mg/kg, po; type: ADME, organism-based; settings: in vivo
[22] = Terminal half life Wistar rat at 3 mg/kg, iv and 10 mg/kg, po; type: ADME, organism-based; settings: in vivo, read-out: beta t1/2 (converted)
Rattus norvegicus [23] = experiment: Dose normalized AUC in Wistar rat at 3 mg/kg, iv; type: ADME, organism-based; parameters: dose 3 mg/kg, route intravenous; settings: in vivo
[24] = target: T3, Receptor-type tyrosine-protein kinase FLT3 (Homo sapiens, UniProt P36888); experiment: Inhibition of Flt3 (unknown origin)
T3 sequence (P36888 whole entry): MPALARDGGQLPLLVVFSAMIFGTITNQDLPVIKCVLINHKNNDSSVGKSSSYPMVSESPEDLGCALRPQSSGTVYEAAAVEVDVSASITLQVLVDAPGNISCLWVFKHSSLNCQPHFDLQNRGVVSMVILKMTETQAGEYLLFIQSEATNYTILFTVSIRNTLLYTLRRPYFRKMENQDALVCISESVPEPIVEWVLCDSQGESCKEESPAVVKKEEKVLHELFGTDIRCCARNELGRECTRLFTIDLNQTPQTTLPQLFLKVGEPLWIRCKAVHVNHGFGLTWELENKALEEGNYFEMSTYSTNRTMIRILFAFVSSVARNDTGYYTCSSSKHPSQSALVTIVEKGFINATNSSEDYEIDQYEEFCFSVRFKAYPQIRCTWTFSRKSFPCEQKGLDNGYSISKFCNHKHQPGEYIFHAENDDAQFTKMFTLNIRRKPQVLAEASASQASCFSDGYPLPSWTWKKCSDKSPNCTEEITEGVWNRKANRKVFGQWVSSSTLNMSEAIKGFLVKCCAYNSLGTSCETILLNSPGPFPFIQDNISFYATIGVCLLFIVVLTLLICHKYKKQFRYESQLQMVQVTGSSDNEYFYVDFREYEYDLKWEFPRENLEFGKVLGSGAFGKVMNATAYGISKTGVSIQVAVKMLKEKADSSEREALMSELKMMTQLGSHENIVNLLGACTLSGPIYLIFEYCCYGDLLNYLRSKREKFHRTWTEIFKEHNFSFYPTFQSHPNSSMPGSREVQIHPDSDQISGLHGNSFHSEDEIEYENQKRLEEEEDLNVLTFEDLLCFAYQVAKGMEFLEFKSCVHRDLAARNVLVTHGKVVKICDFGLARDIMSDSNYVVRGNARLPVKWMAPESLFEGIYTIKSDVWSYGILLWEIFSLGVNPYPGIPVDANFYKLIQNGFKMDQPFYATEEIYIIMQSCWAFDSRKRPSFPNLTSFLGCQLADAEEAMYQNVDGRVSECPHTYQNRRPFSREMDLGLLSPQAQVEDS

[25] = Volume of distribution at steady state in Wistar rat at 3 mg/kg, iv and 10 mg/kg, po; type: ADME, organism-based; settings: in vivo, read-out: Vdss
Rattus norvegicus [26] = experiment: Dose normalized AUC in Wistar rat at 10 mg/kg, po; type: ADME, organism-based; parameters: dose 10 mg/kg, route oral; settings: in vivo
[27] = Drug metabolism in pig liver microsomes assessed as conversion into 5-(1H-indol-7-ylamino)-7-((1R,2S)-2-aminocyclohexylamino)pyrido[4,3-d]pyrimidine-2,4(1H,3H)-dione by NMR; type: ADME, Sus scrofa
[28] = Half life in dog liver S9 fraction; type: ADME, subcellular, Canis lupus familiaris
Liver microsome = experiment: as §1; type: ADME; settings: microsomes

Sequence of Tyrosine-protein kinase JAK2 (O60674 whole entry): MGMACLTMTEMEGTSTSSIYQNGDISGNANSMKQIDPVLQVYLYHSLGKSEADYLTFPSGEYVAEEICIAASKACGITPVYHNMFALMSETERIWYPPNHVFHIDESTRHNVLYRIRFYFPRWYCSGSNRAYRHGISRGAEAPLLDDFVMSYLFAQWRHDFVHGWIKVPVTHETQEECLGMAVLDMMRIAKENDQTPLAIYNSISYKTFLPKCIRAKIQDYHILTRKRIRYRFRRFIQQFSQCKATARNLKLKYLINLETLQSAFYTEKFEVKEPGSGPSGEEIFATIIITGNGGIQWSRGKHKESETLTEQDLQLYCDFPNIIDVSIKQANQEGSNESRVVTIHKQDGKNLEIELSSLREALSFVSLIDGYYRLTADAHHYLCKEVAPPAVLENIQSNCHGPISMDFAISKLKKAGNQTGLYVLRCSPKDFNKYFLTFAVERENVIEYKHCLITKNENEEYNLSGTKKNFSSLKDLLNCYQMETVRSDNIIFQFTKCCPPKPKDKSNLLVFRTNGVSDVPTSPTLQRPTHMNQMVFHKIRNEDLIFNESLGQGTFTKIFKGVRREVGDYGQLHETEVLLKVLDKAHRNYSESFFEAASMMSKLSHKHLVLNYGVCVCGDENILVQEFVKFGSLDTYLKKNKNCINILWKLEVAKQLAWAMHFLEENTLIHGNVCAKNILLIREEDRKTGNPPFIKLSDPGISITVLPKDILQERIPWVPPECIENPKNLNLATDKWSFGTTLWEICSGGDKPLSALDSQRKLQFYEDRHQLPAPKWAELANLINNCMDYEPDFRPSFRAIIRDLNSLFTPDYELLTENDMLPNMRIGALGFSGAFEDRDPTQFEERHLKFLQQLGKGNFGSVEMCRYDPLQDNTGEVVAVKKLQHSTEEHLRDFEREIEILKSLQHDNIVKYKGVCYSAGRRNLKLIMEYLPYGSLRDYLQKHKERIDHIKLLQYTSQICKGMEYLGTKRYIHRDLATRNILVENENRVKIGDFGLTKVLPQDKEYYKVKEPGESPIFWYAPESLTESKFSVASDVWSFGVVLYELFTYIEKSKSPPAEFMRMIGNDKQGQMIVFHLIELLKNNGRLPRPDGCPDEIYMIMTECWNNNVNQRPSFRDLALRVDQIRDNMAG
Sequence of Voltage-gated inwardly rectifying potassium channel KCNH2 (Q12809 whole entry): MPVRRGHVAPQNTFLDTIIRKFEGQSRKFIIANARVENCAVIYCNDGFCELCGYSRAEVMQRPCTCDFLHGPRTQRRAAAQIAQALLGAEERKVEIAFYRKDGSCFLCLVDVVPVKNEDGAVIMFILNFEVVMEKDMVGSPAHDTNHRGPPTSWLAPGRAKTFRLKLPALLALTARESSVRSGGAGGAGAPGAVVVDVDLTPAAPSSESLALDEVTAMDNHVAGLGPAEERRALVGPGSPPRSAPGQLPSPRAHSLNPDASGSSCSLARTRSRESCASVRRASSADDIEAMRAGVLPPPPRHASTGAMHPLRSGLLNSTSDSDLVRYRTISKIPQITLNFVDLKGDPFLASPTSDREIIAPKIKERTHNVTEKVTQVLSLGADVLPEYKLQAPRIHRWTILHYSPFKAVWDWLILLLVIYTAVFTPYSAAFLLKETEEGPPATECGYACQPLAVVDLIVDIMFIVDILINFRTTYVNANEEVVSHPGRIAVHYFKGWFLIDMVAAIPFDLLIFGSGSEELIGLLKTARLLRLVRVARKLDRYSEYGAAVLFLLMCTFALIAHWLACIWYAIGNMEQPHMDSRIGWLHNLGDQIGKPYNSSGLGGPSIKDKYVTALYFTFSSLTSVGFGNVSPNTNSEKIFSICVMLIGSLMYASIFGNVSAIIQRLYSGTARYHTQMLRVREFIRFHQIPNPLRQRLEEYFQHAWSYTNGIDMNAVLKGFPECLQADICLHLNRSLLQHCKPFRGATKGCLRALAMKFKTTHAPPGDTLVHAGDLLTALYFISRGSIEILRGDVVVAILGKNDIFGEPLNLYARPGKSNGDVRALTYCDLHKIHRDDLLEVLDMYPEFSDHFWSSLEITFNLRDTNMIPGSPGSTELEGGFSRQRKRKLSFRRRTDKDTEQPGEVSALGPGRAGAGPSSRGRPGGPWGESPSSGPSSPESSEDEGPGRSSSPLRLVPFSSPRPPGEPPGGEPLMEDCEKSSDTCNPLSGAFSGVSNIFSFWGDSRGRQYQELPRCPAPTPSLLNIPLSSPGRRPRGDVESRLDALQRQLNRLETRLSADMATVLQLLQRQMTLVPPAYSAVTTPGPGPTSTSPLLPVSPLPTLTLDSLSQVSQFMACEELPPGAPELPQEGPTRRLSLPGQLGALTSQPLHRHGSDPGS
Sequence of Tyrosine-protein kinase Lyn (P07948 whole entry): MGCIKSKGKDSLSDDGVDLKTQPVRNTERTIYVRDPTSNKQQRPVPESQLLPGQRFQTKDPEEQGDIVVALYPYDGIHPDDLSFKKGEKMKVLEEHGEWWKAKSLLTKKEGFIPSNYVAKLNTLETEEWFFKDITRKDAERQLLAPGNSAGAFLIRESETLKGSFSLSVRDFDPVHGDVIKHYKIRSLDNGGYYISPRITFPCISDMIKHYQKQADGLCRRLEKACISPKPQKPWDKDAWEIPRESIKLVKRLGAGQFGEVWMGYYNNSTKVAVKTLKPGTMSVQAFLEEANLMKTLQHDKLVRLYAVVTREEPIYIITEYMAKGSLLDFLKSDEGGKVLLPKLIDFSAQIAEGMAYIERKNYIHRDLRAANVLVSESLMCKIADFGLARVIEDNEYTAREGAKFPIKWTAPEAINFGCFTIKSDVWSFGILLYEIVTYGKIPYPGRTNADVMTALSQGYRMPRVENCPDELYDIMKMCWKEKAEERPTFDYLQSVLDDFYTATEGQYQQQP

| SMILES | IC50 [1] [nM] | IC50 (Bone marrow cell) [nM] | IC50 [2] [nM] | IC50 [5] [nM] | IC50 [6] [nM] | half-life [7] [min] | IC50 [8] [nM] | IC50 [16] [nM] | also measured |
| --- | --- | --- | --- | --- | --- | --- | --- | --- | --- |
| Cn1cc2c(Nc3nc(N[C@@H]4CCOC[C@@H]4N)cc4cc[nH]c(=O)c34)cccc2n1 | 18 | 1440 | 78 | 376 | 190 | 22 | 1 |  | t1/2 (Liver): > 120 min; IC50 [3]: > 30000 nM; t1/2 [4]: > 120 min |
| Cc1c[nH]c2c(Nc3nc(N[C@@H]4CCCC[C@@H]4N)cc4nc[nH]c(=O)c34)cccc12 | 33 | 3800 | 47 | 805 | 44 | 25 | 2 | 190 | AUC/dose (Rattus norvegicus [9]): 1109 nM·h; Vd [10]: 19 L/kg; Cmax/dose (Rattus norvegicus [11]): 4 nM; IC50 [3]: > 30000 nM; Papp B→A [12]: 9.6 ×10⁻⁶ cm/s; AUC/dose (Rattus norvegicus [13]): 40 nM·h; bioavailability [14]: 4%; Papp A→B [15]: 9.5 ×10⁻⁶ cm/s; half-life [17]: 780 min; clearance [18]: 39 mL/min/kg |
| N[C@H]1CCCC[C@H]1Nc1cc2nc[nH]c(=O)c2c(Nc2cccc3[nH]ccc23)n1 | 14 | 4140 | 35 | 322 | 32 | 17 | 1 | 83 |  |
| N[C@H]1CCCC[C@H]1Nc1cc2nc[nH]c(=O)c2c(Nc2cccc(-n3nccn3)c2)n1 | 74 | 249 | 778 |  |  |  | 5 |  |  |
| N[C@H]1COCC[C@H]1Nc1cc2cc[nH]c(=O)c2c(Nc2cccc3cc[nH]c23)n1 | 340 | 3510 | 55 | 433 | 1200 | 50 | 22 | 680 | clearance [19]: 142 mL/min/kg; bioavailability [20]: 7%; IC50 [3]: 24900 nM; Cmax/dose (Rattus norvegicus [21]): 2 nM; half-life [22]: 126 min; AUC/dose (Rattus norvegicus [23]): 299 nM·h; IC50 [24]: 20 nM; Vd [25]: 18 L/kg; AUC/dose (Rattus norvegicus [26]): 19 nM·h |
| O=c1[nH]cnc2cc(N[C@@H]3CCCNC3)nc(Nc3cccc4cc[nH]c34)c12 | 3000 |  | 378 | 1990 | 315 |  | 165 | 950 |  |
| N[C@H]1CCCC[C@H]1Nc1cc2[nH]c(=O)[nH]c(=O)c2c(Nc2cccc3cc[nH]c23)n1 |  |  |  |  |  |  | 1900 |  |  |
| N[C@H]1COCC[C@H]1Nc1cc2nc[nH]c(=O)c2c(Nc2cccc3cc[nH]c23)n1 | 375 | 7470 | 60 | 232 | 230 | 14 | 20 | 290 |  |
| Cc1c[nH]c2c(Nc3nc(N[C@@H]4CCCC[C@@H]4N)cc4cc[nH]c(=O)c34)cccc12 | 81 | 4940 | 95 | 430 | 550 | 27 | 3 | 300 |  |
| NC(=O)c1cnc(N[C@@H]2CCCC[C@@H]2N)nc1Nc1cccc(-n2nccn2)c1 |  | 5850 |  |  |  |  |  |  |  |
| Cn1ccc2cccc(Nc3nc(N[C@@H]4CCCC[C@@H]4N)cc4nc[nH]c(=O)c34)c21 | > 10000 | > 10000 | 9270 |  | > 10000 | 9 | 1600 | > 10000 |  |
| COc1cc(Nc2ncc(F)c(Nc3ccc4c(n3)NC(=O)C(C)(C)O4)n2)cc(OC)c1OC [R-406] |  | 147 |  |  |  |  |  |  |  |
| N[C@H]1CCCC[C@H]1Nc1cc2nc[nH]c(=O)c2c(Nc2cccc3c(Cl)c[nH]c23)n1 | 815 | 6660 | 320 |  | 1000 | 19 | 34 | 1810 | IC50 [3]: 20000 nM |
| N[C@H]1CCCC[C@H]1Nc1cc2nc[nH]c(=O)c2c(Nc2cccc3cc[nH]c23)n1 |  |  |  |  |  |  |  |  | AUC/dose (Rattus norvegicus [9]): 629 nM·h; t1/2 (Liver): < 5 min; Vd [10]: 31 L/kg; Cmax/dose (Rattus norvegicus [11]): 1 nM; Drug metabolism [27]: metabolite_detected; t1/2 [4]: < 5 min; Papp B→A [12]: 15.2 ×10⁻⁶ cm/s; AUC/dose (Rattus norvegicus [13]): 9 nM·h; half-life [28]: > 120 min; bioavailability [14]: 1%; Papp A→B [15]: 9.5 ×10⁻⁶ cm/s; t1/2 (Liver microsome): 22 min; half-life [17]: 660 min; clearance [18]: 69 mL/min/kg |
| Cc1nc2cc(N[C@@H]3CCCC[C@@H]3N)nc(Nc3cccc4c(C)c[nH]c34)c2c(=O)[nH]1 | > 10000 |  |  |  | > 10000 | 59 | 480 | > 10000 | t1/2 (Liver): > 120 min; t1/2 [4]: > 120 min |
| Cc1c[nH]c2c(Nc3nc(N[C@@H]4CCOC[C@@H]4N)cc4nc[nH]c(=O)c34)cccc12 | 47 | 5980 | 37 | 299 | 69 | 20 | 1 | 184 | AUC/dose (Rattus norvegicus [9]): 401 nM·h; Vd [10]: 12 L/kg; Cmax/dose (Rattus norvegicus [11]): 2 nM; IC50 [3]: > 30000 nM; AUC/dose (Rattus norvegicus [13]): 9 nM·h; bioavailability [14]: 2%; half-life [17]: 198 min; clearance [18]: 112 mL/min/kg |
| C[C@H](N)CNc1cc2nc[nH]c(=O)c2c(Nc2cccc3cc[nH]c23)n1 | 445 | > 10000 | 209 | 1010 | 84 | 10 | 21 | 980 |  |
| N[C@H]1CCCC[C@H]1Nc1cc2cc[nH]c(=O)c2c(Nc2cccc3c(Cl)c[nH]c23)n1 | 350 |  | 283 |  | 1800 | 9 | 4 | 1230 | t1/2 (Liver): > 120 min; t1/2 [4]: > 120 min |
